Results on 23 compounds are retold here after patent US9475766B2, “Substituted aromatic sulfur compounds and methods of their use” (Cephalon, Inc., priority 2011, dated 2016).

What all share (assay type): cell-based
Assay [1] relates to SU86 pancreatic cancer cell line (Su.86.86). In words: Cell survival and adhesion assay (luciferase), SU86. To be noted: 5 hours, SU86 cells overlayed onto human mesothelial cell monolayers, read-out: relative reduction in Luciferase activity, SU86 10 μM. As to the method:
(§1) SU86 is a pancreatic cancer cell line. HT29 is a colon cancer cell line. BxPC3 is a pancreatic cell line. A2780 is an ovarian cancer cell line.
(§2) BxPc-3 and Su.86.86 pancreatic and HT-29 colon and A2780 ovarian cancer cell lines were purchased from ATCC and cultured in DMEM supplemented with 10% fetal bovine serum, glutamine, penicillin, and streptomycin. All cells were cultured at 37° C. in a humidified incubator in a 5% CO2 atmosphere. The cancer cell lines were transduced with a retrovirus containing pLuc-puro, a constitutive luciferase reporter and selected in […] media. Transient transfection of a full-length human c-FLIP construct in the vector pcDNA3 was performed as previously described. Scaife et al. Cancer Research 2002, 62: 6870-78.
(§3) Pancreatic cancer cell cultures (BxPc-3 and Su.86.86) and colon cancer (HT-29) and ovarian cancer (A2780) cells that were stably transfected with a firefly luciferase construct were transiently suspended with trypsin-PBS. 10^5 cells were overlayed onto confluent monolayers of human mesothelial cells in 96-well plates while simultaneously adding various concentrations of compounds of the invention or DMSO for 5 hours. The non-adherent cells were carefully washed away from the wells twice with 100 μl/well of blocking buffer (1% BSA in PBS) and twice again with ice-cold PBS. Adherent and surviving cells were detected by luciferase activity in a luminometer as follows. The cells were lysed in 0.1% TritonX-100, 25 mM Gly-Gly (7.8), MgSO4, 4 mM EGTA, 1 mM DTT. The total protein concentration was normalized with lysis buffer. 50 μl of cell lysate was added per well of a 96-well microtiter plate. 50 μl of luciferin substrate (Promega) was added per well and then the light output determined in a luminometer.

In assay [2] the test system is HT29 colon cancer cell line. In words: Cell survival and adhesion assay (luciferase), HT29. The following applies: HT-29, 5 hours, HT29 cells overlayed onto human mesothelial cell monolayers, read-out: relative reduction in Luciferase activity, HT29 10 μM. How it is done: as §1, §2, §3
Assay [3] has as its system BxPC3 pancreatic cell line. Briefly: Cell survival and adhesion assay (luciferase), BxPC3. The following applies: BXPC-3, 5 hours, BxPC3 cells overlayed onto human mesothelial cell monolayers, read-out: relative reduction in Luciferase activity, BxPC3 10 μM. As to the method:
as §1, §2, §3

Assay [4] relates to A2780 ovarian cancer cell line. Briefly: Cell survival and adhesion assay (luciferase), A2780. To be noted: 5 hours, A2780 cells overlayed onto human mesothelial cell monolayers, read-out: relative reduction in Luciferase activity, A2780 10 μM. How it is done:
as §1, §2, §3

Regarding `CC(C)(C(=O)O)c1ccc(S(=O)(=O)/C=C/C#N)cc1` [Example 1, 2-[4-((E)-2-Cyano-ethenesulfonyl)-phenyl]-2-methyl-propionic acid], the inhibition at 10 µM in assay [1] is 10 to 50%; in assay [2], 10 to 50%; in assay [3], less than 10%; in assay [4], less than 10%.
On to `CC(C)(C(=O)O)c1cccc(S(=O)(=O)/C=C/C#N)c1` [Example 2, 2-[3-((E)-2-Cyano-ethenesulfonyl)-phenyl]-2-methyl-propionic acid], for which the inhibition at 10 µM in assay [1] was less than 10%; in assay [2], 10 to 50%; in assay [3] it was 10 to 50%; in assay [4] it was less than 10%.
With `CC(C)(C(=O)N1CCOCC1)c1ccc(S(=O)(=O)/C=C/C#N)cc1` [Example 3, (E)-3-[4-(1,1-Dimethyl-2-morpholin-4-yl-2-oxo-ethyl)-benzenesulfonyl]-acrylonitrile], the inhibition at 10 µM in assay [1] was less than 10%; in assay [2], less than 10%; in assay [3], 10 to 50%; in assay [4], 10 to 50%.
As to `CC(C)(C(=O)NCCO)c1ccc(S(=O)(=O)/C=C/C#N)cc1` [Example 4, 2-[4-((E)-2-Cyano-ethenesulfonyl)-phenyl]-N-(2-hydroxy-ethyl)-isobutyramide], the inhibition at 10 µM in assay [1] is less than 10%; in assay [2] it was 10 to 50%; in assay [3], less than 10%; in assay [4], less than 10%.
Regarding `CC(C)(C(=O)Nc1ccccc1)c1ccc(S(=O)(=O)/C=C/C#N)cc1` [Example 5, 2-[4-((E)-2-Cyano-ethenesulfonyl)-phenyl]-N-phenyl-isobutyramide], the inhibition at 10 µM is 10 to 50% in assay [1], less than 10% in assay [2], 50 to 85% in assay [3] and 50 to 85% in assay [4].
Regarding `CC(C)(C(=O)NCc1ccccc1)c1ccc(S(=O)(=O)/C=C/C#N)cc1` [Example 6, N-Benzyl-2-[4-((E)-2-cyano-ethenesulfonyl)-phenyl]-isobutyramide], the inhibition at 10 µM in assay [1] was 50 to 85%; in assay [2] it was less than 10%; in assay [3], 50 to 85%; in assay [4] it was more than 85%.
On to `CC(C)(C(=O)NCc1ccccn1)c1ccc(S(=O)(=O)/C=C/C#N)cc1` [Example 7, 2-[4-((E)-2-Cyano-ethenesulfonyl)-phenyl]-N-pyridin-2-ylmethyl-isobutyramide], for which the inhibition at 10 µM in assay [1] was 10 to 50%; in assay [2], less than 10%; in assay [3] it was 10 to 50%; in assay [4] it was 10 to 50%.
Regarding `CC(C)CNC(=O)C(C)(C)c1ccc(S(=O)(=O)/C=C/C#N)cc1` [Example 8, 2-[4-((E)-2-Cyano-ethenesulfonyl)-phenyl]-N-isobutyl-isobutyramide], the inhibition at 10 µM in assay [1] was in the range of 50 to 85%; in assay [2] it was 10 to 50%; in assay [3], 50 to 85%; in assay [4], 50 to 85%.
As to `CN1CCN(C(=O)C(C)(C)c2ccc(S(=O)(=O)/C=C/C#N)cc2)CC1` [Example 9, (E)-3-{4-[1,1-Dimethyl-2-(4-methyl-piperazin-1-yl)-2-oxo-ethyl]-benzenesulfonyl}-acrylonitrile], the inhibition at 10 µM in assay [1], in assay [2], in assay [3] and in assay [4] was less than 10% throughout.
Take `CC(C)(C(=O)NCC1CC1)c1ccc(S(=O)(=O)/C=C/C#N)cc1` [Example 10]: the inhibition at 10 µM in assay [1] was 10 to 50%; in assay [2] it was less than 10%; in assay [3], 10 to 50%; in assay [4] it was 50 to 85%.
Consider `CC(C)(C(=O)NCC(F)F)c1ccc(S(=O)(=O)/C=C/C#N)cc1` [Example 11, 2-[4-((E)-2-Cyano-ethenesulfonyl)-phenyl]-N-(2,2-difluoro-ethyl)-isobutyramide], for which the inhibition at 10 µM in assay [1] was 10 to 50%; in assay [2], less than 10%; in assay [3] it was 10 to 50%; in assay [4], 10 to 50%.
For `CC(C)(C(=O)NC1CCOCC1)c1ccc(S(=O)(=O)/C=C/C#N)cc1` [Example 13, 2-[4-((E)-2-Cyano-ethenesulfonyl)-phenyl]-N-(tetrahydro-pyran-4-yl)-isobutyramide], the inhibition at 10 µM in assay [1] was less than 10%; in assay [2], 10 to 50%; in assay [3], less than 10%; in assay [4] it was less than 10%.
On to `CC(C)(C(=O)NCc1ccc(Cl)cc1)c1ccc(S(=O)(=O)/C=C/C#N)cc1` [Example 14, N-(4-Chloro-benzyl)-2-[4-((E)-2-cyano-ethenesulfonyl)-phenyl]-isobutyramide], for which the inhibition at 10 µM was 50 to 85% in assay [1], 10 to 50% in assay [2], 50 to 85% in assay [3] and more than 85% in assay [4].
With `CC(C)(C(=O)NCc1cccs1)c1ccc(S(=O)(=O)/C=C/C#N)cc1` [Example 15, 2-[4-((E)-2-Cyano-ethenesulfonyl)-phenyl]-N-thiophen-2-ylmethyl-isobutyramide], the inhibition at 10 µM was 50 to 85% in assay [1], less than 10% in assay [2], 50 to 85% in assay [3] and more than 85% in assay [4].
As for `CC(C)(C(=O)NNC(=O)C1CCCCC1)c1ccc(S(=O)(=O)/C=C/C#N)cc1` [Example 52, Cyclohexanecarboxylic acid N′-{2-[4-((E)-2-cyano-ethenesulfonyl)-phenyl]-2-methyl-propionyl}-hydrazide], the inhibition at 10 µM was 10 to 50% in assay [1], 50 to 85% in assay [2] and less than 10% in assay [3].
`CC(C)(c1ccc(S(=O)(=O)/C=C/C#N)cc1)c1nnc(C2CCCCC2)o1` [Example 53, (E)-3-{4-[1-(5-Cyclohexyl-[1,3,4]oxadiazol-2-yl)-1-methyl-ethyl]-benzenesulfonyl}-acrylonitrile]: the inhibition at 10 µM in assay [1] is 50 to 85%; in assay [2], more than 85%; in assay [3] it was more than 85%.
For the compound `CC(C)(C)c1cccc(S(=O)(=O)/C=C/C#N)c1` [Example 54, (E)-3-(3-tert-Butyl-benzenesulfonyl)-acrylonitrile], the inhibition at 10 µM in assay [1] was more than 85%; in assay [2], less than 10%; in assay [3], more than 85%; in assay [4] it was more than 85%.
Regarding `CC(C)(C)c1ccc(S/C=C/C#N)cc1` [Example 60, (E)-3-(4-tert-Butyl-phenylsulfanyl)-acrylonitrile], the inhibition at 10 µM in assay [1], in assay [2], in assay [3] and in assay [4] was less than 10% throughout.
Turning to `CC(C)(C)c1cc(S(=O)(=O)/C=C/C#N)ccc1OCC(=O)O` [Example 61, [2-tert-Butyl-4-((E)-2-cyano-ethenesulfonyl)-phenoxy]-acetic acid], the inhibition at 10 µM was less than 10% in assay [1], less than 10% in assay [2], 10 to 50% in assay [3] and less than 10% in assay [4].
As to `N#C/C=C/S(=O)(=O)c1ccc(C2(C(=O)O)CC2)cc1` [Example 62, 1-[4-((E)-2-Cyano-ethenesulfonyl)-phenyl]-cyclopropanecarboxylic acid], the inhibition at 10 µM is 10 to 50% in assay [1], less than 10% in assay [2], less than 10% in assay [3] and 10 to 50% in assay [4].
On to `CC(C)(C)c1cc(S(=O)(=O)/C=C/C#N)ccc1OCC(=O)NC1CCCCC1` [Example 63, 2-[2-tert-Butyl-4-((E)-2-cyano-ethenesulfonyl)-phenoxy]-N-cyclohexyl-acetamide], for which the inhibition at 10 µM in assay [1] is 50 to 85%; in assay [2], more than 85%; in assay [3] it was more than 85%; in assay [4] it was more than 85%.
In the case of `CC(C)(C)c1cc(S(=O)(=O)/C=C/C#N)ccc1OCC(=O)NCc1ccc(F)cc1` [Example 64, 2-[2-tert-Butyl-4-((E)-2-cyano-ethenesulfonyl)-phenoxy]-N-(4-fluoro-benzyl)-acetamide], the inhibition at 10 µM in assay [1] is 50 to 85%; in assay [2], more than 85%; in assay [3], more than 85%; in assay [4] it was more than 85%.
With `COc1cccc(NC(=O)COc2ccc(S(=O)(=O)/C=C/C#N)cc2C(C)(C)C)c1` [Example 65, 2-[2-tert-Butyl-4-((E)-2-cyano-ethenesulfonyl)-phenoxy]-N-(3-methoxy-phenyl)-acetamide], the inhibition at 10 µM in assay [1] was 50 to 85%; in assay [2] it was more than 85%; in assay [3], 50 to 85%; in assay [4], more than 85%.
